According to the NIST ThermoML archive (doi:10.1021/je0340809):

Test: xn = mol fraction of the nth substance listed
Conditions: 101.3 kPa, Liquid

C=CN1CCCC1=O [N-vinylpyrrolidone] + O
Conditions | mass density [kg/m3] | speed of sound [m/s] | viscosity [mPa·s]
298.15 K, x2 = 0.0557 | 1042.3 | 1533.7 | 4.243
298.15 K, x2 = 0.1591 | 1043.33 | 1548.1 | –
298.15 K, x2 = 0.2543 | 1044.19 | 1563.3 | 3.875
298.15 K, x2 = 0.3503 | 1044.83 | 1580.9 | 3.75
298.15 K, x2 = 0.4525 | 1045.46 | 1598.7 | 3.717
298.15 K, x2 = 0.5028 | 1045.82 | 1609.9 | 3.742
298.15 K, x2 = 0.5539 | 1046.19 | 1618.5 | 3.792
298.15 K, x2 = 0.6546 | 1046.56 | 1635.8 | 3.91
298.15 K, x2 = 0.7505 | 1045.06 | 1649.2 | 3.904
298.15 K, x2 = 0.8519 | 1037.72 | 1648.2 | 3.466
298.15 K, x2 = 0.8751 | 1034.5 | 1646.7 | 3.255
298.15 K, x2 = 0.8852 | 1032.84 | 1644.4 | 3.145
298.15 K, x2 = 0.9001 | 1030.08 | 1640 | 2.962
298.15 K, x2 = 0.9251 | 1024.45 | 1623.7 | 2.591
298.15 K, x2 = 0.9357 | 1021.63 | 1613.8 | 2.408
298.15 K, x2 = 0.9554 | 1015.6 | 1589.5 | 2.021
298.15 K, x2 = 0.9649 | 1012.26 | 1574.7 | –
298.15 K, x2 = 0.9749 | 1008.43 | 1556.5 | 1.573
298.15 K, x2 = 0.9903 | 1001.77 | 1523.1 | 1.169
308.15 K, x2 = 0.0557 | 1033.43 | 1502.5 | 2.907
308.15 K, x2 = 0.1591 | 1034.36 | 1514.3 | 2.809
308.15 K, x2 = 0.2543 | 1035.14 | 1526.7 | 2.718
308.15 K, x2 = 0.3503 | 1035.73 | 1541.2 | 2.667
308.15 K, x2 = 0.4525 | 1036.33 | 1556.2 | 2.694
308.15 K, x2 = 0.5028 | 1036.61 | 1565.6 | 2.742
308.15 K, x2 = 0.5539 | 1037.01 | 1573.3 | 2.807
308.15 K, x2 = 0.6546 | 1037.41 | 1589.3 | 2.954
308.15 K, x2 = 0.7505 | 1036.16 | 1603.4 | 3.001
308.15 K, x2 = 0.8519 | 1029.8 | 1609.5 | 2.703
308.15 K, x2 = 0.8751 | 1026.99 | 1610.5 | 2.545
308.15 K, x2 = 0.8852 | 1025.54 | 1609.8 | 2.463
308.15 K, x2 = 0.9001 | 1023.12 | 1608.2 | 2.324
308.15 K, x2 = 0.9251 | 1018.18 | 1599.1 | 2.04
308.15 K, x2 = 0.9357 | 1015.71 | 1593.2 | 1.9
308.15 K, x2 = 0.9554 | 1010.4 | 1578.2 | 1.6
308.15 K, x2 = 0.9649 | 1007.47 | 1568.8 | 1.437
308.15 K, x2 = 0.9749 | 1004.09 | 1557.1 | 1.252
308.15 K, x2 = 0.9903 | 998.206 | 1535.4 | 0.932
318.15 K, x2 = 0.0557 | 1024.6 | 1470.5 | 2.552
318.15 K, x2 = 0.1591 | 1025.41 | 1480.4 | 2.454
318.15 K, x2 = 0.2543 | 1026.11 | 1490.9 | 2.362
318.15 K, x2 = 0.3503 | 1026.63 | 1503.3 | 2.305
318.15 K, x2 = 0.4525 | 1027.16 | 1516.6 | 2.31
318.15 K, x2 = 0.5028 | 1027.46 | 1524.9 | 2.34
318.15 K, x2 = 0.5539 | 1027.78 | 1532.1 | 2.385
318.15 K, x2 = 0.6546 | 1028.14 | 1547.7 | 2.488
318.15 K, x2 = 0.7505 | 1027.08 | 1563.3 | 2.509
318.15 K, x2 = 0.8519 | 1021.56 | 1576 | 2.249
318.15 K, x2 = 0.8751 | 1019.1 | 1579.4 | 2.115
318.15 K, x2 = 0.8852 | 1017.84 | 1580.1 | 2.046
318.15 K, x2 = 0.9001 | 1015.73 | 1580.9 | 1.929
318.15 K, x2 = 0.9251 | 1011.41 | 1577.9 | 1.692
318.15 K, x2 = 0.9357 | 1009.25 | 1575.3 | 1.576
318.15 K, x2 = 0.9554 | 1004.59 | 1567.9 | 1.326
318.15 K, x2 = 0.9649 | 1002.02 | 1562.9 | 1.191
318.15 K, x2 = 0.9749 | 999.05 | 1556.6 | 1.037
318.15 K, x2 = 0.9903 | 993.883 | 1544.4 | 0.776
328.15 K, x2 = 0.0557 | 1015.77 | 1433 | 2.221
328.15 K, x2 = 0.1591 | 1016.49 | 1441.7 | 2.128
328.15 K, x2 = 0.2543 | 1017.1 | 1451.2 | 2.042
328.15 K, x2 = 0.3503 | 1017.56 | 1462.3 | 1.983
328.15 K, x2 = 0.4525 | 1018.03 | 1474.7 | 1.975
328.15 K, x2 = 0.5028 | 1018.3 | 1482.4 | 1.993
328.15 K, x2 = 0.5539 | 1018.58 | 1489.6 | 2.025
328.15 K, x2 = 0.6546 | 1018.91 | 1505.7 | 2.096
328.15 K, x2 = 0.7505 | 1018 | 1523.4 | 2.103
328.15 K, x2 = 0.8519 | 1013.18 | 1542.9 | 1.876
328.15 K, x2 = 0.8751 | 1011.04 | 1548.6 | 1.763
328.15 K, x2 = 0.8852 | 1009.94 | 1550.7 | 1.705
328.15 K, x2 = 0.9001 | 1008.09 | 1553.7 | 1.609
328.15 K, x2 = 0.9251 | 1004.31 | 1556.2 | 1.411
328.15 K, x2 = 0.9357 | 1002.41 | 1556.5 | 1.314
328.15 K, x2 = 0.9554 | 998.333 | 1556.6 | 1.108
328.15 K, x2 = 0.9649 | 996.075 | 1554.4 | 0.995
328.15 K, x2 = 0.9749 | 993.467 | 1552.6 | 0.868
328.15 K, x2 = 0.9903 | 988.924 | 1548.5 | 0.652
338.15 K, x2 = 0.0557 | 1006.93 | 1406 | 1.807
338.15 K, x2 = 0.1591 | 1007.56 | 1413.8 | 1.736
338.15 K, x2 = 0.2543 | 1008.1 | 1422.3 | 1.668
338.15 K, x2 = 0.3503 | 1008.51 | 1432.4 | 1.624
338.15 K, x2 = 0.4525 | 1008.92 | 1444.1 | 1.621
338.15 K, x2 = 0.5028 | 1009.15 | 1451.3 | 1.639
338.15 K, x2 = 0.5539 | 1009.4 | 1458.3 | 1.667
338.15 K, x2 = 0.6546 | 1009.7 | 1474.6 | 1.73
338.15 K, x2 = 0.7505 | 1008.9 | 1493.7 | 1.739
338.15 K, x2 = 0.8519 | 1004.69 | 1517.9 | 1.557
338.15 K, x2 = 0.8751 | 1002.82 | 1525.2 | 1.466
338.15 K, x2 = 0.8852 | 1001.85 | 1528.2 | 1.42
338.15 K, x2 = 0.9001 | 1000.23 | 1532.8 | 1.34
338.15 K, x2 = 0.9251 | 996.917 | 1539.1 | 1.18
338.15 K, x2 = 0.9357 | 995.252 | 1541.5 | 1.1
338.15 K, x2 = 0.9554 | 991.671 | 1545.5 | 0.931
338.15 K, x2 = 0.9649 | 989.687 | 1547 | 0.84
338.15 K, x2 = 0.9749 | 987.393 | 1548.4 | 0.736
338.15 K, x2 = 0.9903 | 983.396 | 1550.2 | 0.56
